Source: US12311019B2, “Vaccine composition and uses thereof” (Imugene Limited, priority 2018, dated 2025)
“Also recorded” adds a separate entry of the source.

Assays:
[1] = tested on: PD1 protein from other species—mouse, rat, Rhesus monkey, Cynomolgus monkey and canine; assay: Cross-reactivity ELISAs, summary over species; assay type: binding; conditions: for cross-reactivity of affinity-purified anti-PD1 antibodies from animals immunised with the peptide with PD1 protein from other species: mouse, rat, Rhesus monkey, Cynomolgus monkey and canine
Description: To assess whether or not the anti-human PD1 antibodies raised in the immunised rabbits would cross-react with PD1 of other species, the anti-PD1 antisera from the Examples 7 and 8, above, were screened in an ELISA assay for binding to mouse, rhesus monkey, canine and rat PD1 proteins.
A further ELISA assay was performed to make a direct comparison of the cross-reactivity of anti-human PD1 antibodies raised in the immunised rabbits (Rabbits 1 and 2) to PD1 proteins of different species.

[2] = target: PD1 (SEQ ID NO:1) conjugated to a His tag (Homo sapiens, UniProt Q15116); assay: ELISA of anti-PD1 antibody titre in immunised rabbits on PD1 coated plates; assay type: binding; conditions: for anti-PD1 antibody response / titre raised in immunised rabbits (in words): rabbits immunised with KLH-conjugated peptide in Freund's adjuvant
Description: Approximately 250-500 μg of each KLH-conjugated peptide fragment was diluted with saline and subsequently emulsified in complete or incomplete Freund's adjuvant at a mass ratio of 1:1. The emulsified solution was administered to rabbits by subcutaneous injection around the shoulders and intramuscular injection into the legs in accordance with the following immunization protocol: • i. Day 00—Serum collected 2 ml (for 0.5-1.0 ml pre-immune serum; • ii. Day 01—1st-immunization, complete Freund's adjuvant, 500 μg peptide fragment; • iii. Day 15—2nd-immunization, complete Freund's adjuvant, 500 μg peptide fragment; • iv. Day 29—3rd-immunization, incomplete Freund's adjuvant, 250 μg peptide fragment; • v. Day 35—Serum collected, 2-3 ml for assessment of anti-PD1 antibody titre by ELISA; • vi. Day 36—4th-immunization, incomplete Freund's adjuvant, 250 μg peptide fragment (optional); • vii. Day 43—5th-immunization, incomplete Freund's adjuvant. 250 μg peptide fragment (optional); • viii. Day 50—6th-immunization, incomplete Freund's adjuvant 250 μg peptide fragment (optional); • ix. Day 57—7th-immunization, incomplete Freund's adjuvant 250 μg peptide fragment (optional); • x. Day 63—Blood sample is collected from the immunised rabbits. B. Assessment of Anti-PDJ Antibody Titre in Immunised Rabbits by ELISA
An enzyme-linked immunosorbent assays (ELISA) was used to measure the anti-PD1 antibody titre in the blood samples collected from the immunized rabbits. Briefly, microtiter plates were coated with PD1 (SEQ ID NO:1) conjugated to a His tag. After blocking the wells of the microtiter plates with BSA to minimise non-specific binding, diluted sera from the immunized rabbits were added to the plates and incubated on a shaker for around 1 hr at 20° C. (or alternatively overnight at 4° C.). The plates were then washed four times with PBS/0.1% v/v Tween 20 and excess wash buffer was removed from each well.
Approximately 100 μL of a horseradish peroxidase-labeled anti-rabbit antibody was then added to each well and incubated for around 1 hr at 20° C. The plates were then washed four times with PBS/0.1% v/v Tween 20 and excess wash buffer was removed from each well. The plates were then washed twice with PBS only, to remove traces of Tween remaining from the washing buffer.
To detect the presence of horseradish peroxidase-labeled, anti-rabbit antibody, 100 μL of 1-Step™ ABTS (Pierce Cat. No. 37615) was added to each well and incubated for up to 45 min at 20° C. The absorbance of any colour change in each well was read using a microtitre Titertek Multiskan MC plate reader in the dual wavelength mode at 405 nm against a reference wavelength of 492 nm and compared to appropriate negative controls, such as the colour change observed in a well to which no PD1 was added, to which no immunised rabbit sera was added and/or to which no horseradish peroxidase-labeled, anti-rabbit antibody was added.
Approximately 250-500 μg of each KLH-conjugated fusion peptides were diluted with saline and subsequently emulsified in complete or incomplete Freund's adjuvant at a mass ratio of 1:1. The emulsified solutions were administered to rabbits by subcutaneous injection around the shoulders and intramuscular injection into the legs in accordance with the immunization protocol of Example 2, above.
An enzyme-linked immunosorbent assays (ELISA) was used to measure the anti-PD1 antibody titre in the blood samples collected from the immunized rabbits, in accordance with the methodology set out in Example 2 above. The absorbance readings from the ELISA assay are shown in Table 8, below (SEQ TD NO:9 is underlined): […]

Sequence of PD1 (SEQ ID NO:1) conjugated to a His tag (Q15116 25-170): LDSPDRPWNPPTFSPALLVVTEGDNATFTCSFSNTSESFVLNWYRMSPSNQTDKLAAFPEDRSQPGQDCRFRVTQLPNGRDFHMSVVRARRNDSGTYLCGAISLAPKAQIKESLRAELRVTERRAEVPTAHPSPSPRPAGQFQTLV

Sequence	species of greatest cross-reactivity of the anti-PD1 antibodies raised with the peptide [1]	cross-reactivity of affinity-purified anti-PD1 antibodies from animals immunised with the peptide with PD1 protein from other species [1]	anti-PD1 antibody response / titre raised in immunised rabbits (in words) [2]	anti-PD1 antibody titre compared to the other peptide sequences ([2]; immunised rabbits)
GAISLAPKAQIK (listed as Homo sapiens) [SEQ ID NO:43]	greatest cross-reactivity to PD1 protein from Rhesus and Cynomolgus monkeys	at least some cross-reactivity	raising an anti-PD1 antibody response; also recorded: sufficient anti-PD1 antibody titres	–
GWFLDSPDRPWN (listed as Homo sapiens) [SEQ ID NO:9]	greatest cross-reactivity to PD1 protein from Rhesus and Cynomolgus monkeys	at least some cross-reactivity	raising an anti-PD1 antibody response; also recorded: sufficient anti-PD1 antibody titres	highest anti-PD1 antibody titre; also recorded: higher anti-PD1 antibody titre
LRVTERRAEVPT (listed as Homo sapiens) [SEQ ID NO:49]	greatest cross-reactivity to PD1 protein from Rhesus and Cynomolgus monkeys	at least some cross-reactivity	raising an anti-PD1 antibody response; also recorded: sufficient anti-PD1 antibody titres	–
GWFLDSPDRPWNGAISLAPKAQIK (listed as Homo sapiens) [SEQ ID NO:56]	greatest cross-reactivity to PD1 protein from Rhesus and Cynomolgus monkeys	at least some cross-reactivity	Anti-PD1 antibodies were also raised	–
GAISLAPKAQIKGWFLDSPDRPWN (listed as Homo sapiens) [SEQ ID NO:57]	greatest cross-reactivity to PD1 protein from Rhesus and Cynomolgus monkeys	at least some cross-reactivity	Anti-PD1 antibodies were also raised	–
LDSPDRPWNPPT (listed as Homo sapiens) [SEQ ID NO:10]	greatest cross-reactivity to PD1 protein from Rhesus and Cynomolgus monkeys	at least some cross-reactivity	raising an anti-PD1 antibody response; also recorded: sufficient anti-PD1 antibody titres	–
YLSGAISLAPKA (listed as Homo sapiens) [SEQ ID NO:61]	greatest cross-reactivity to PD1 protein from Rhesus and Cynomolgus monkeys	at least some cross-reactivity	raising an anti-PD1 antibody response; also recorded: sufficient anti-PD1 antibody titres	–
NWYRMSPSNQTD (listed as Homo sapiens) [SEQ ID NO:59]	greatest cross-reactivity to PD1 protein from Rhesus and Cynomolgus monkeys	at least some cross-reactivity	raising an anti-PD1 antibody response; also recorded: sufficient anti-PD1 antibody titres	–
FSPALLVVTEGD (listed as Homo sapiens) [SEQ ID NO:14]	greatest cross-reactivity to PD1 protein from Rhesus and Cynomolgus monkeys	at least some cross-reactivity	raising an anti-PD1 antibody response; also recorded: sufficient anti-PD1 antibody titres	–
FPEDRSQPGQDC (listed as Homo sapiens) [SEQ ID NO:29]	greatest cross-reactivity to PD1 protein from Rhesus and Cynomolgus monkeys	at least some cross-reactivity	raising an anti-PD1 antibody response; also recorded: sufficient anti-PD1 antibody titres	–
LAAFPEDRSQPG (listed as Homo sapiens) [SEQ ID NO:28]	greatest cross-reactivity to PD1 protein from Rhesus and Cynomolgus monkeys	at least some cross-reactivity	raising an anti-PD1 antibody response; also recorded: sufficient anti-PD1 antibody titres	–
